# Reference: patent US20220025003A1, “REAGENTS AND METHODS FOR CONTROLLING PROTEIN FUNCTION AND INTERACTION” (University of Washington, priority 2018, published 2022)
# What was measured:
# NS3a active = molecular target: T1, NS3a active (Hepatitis C virus genotype 1b, UniProt Q9WMX2, A1176V/E1056D/L1047A/L1120M/Q1112P/R1052K/V1062L/V1196I); test: Fluorescence polarization competition assay with FAM-ANR; assay type: binding
# T1 construct: Avi-His6-NS3a; made in house; host or cells: E. coli BL21 (DE3)
# Protocol: (§1) Fluorescence polarization competition assays were used to determine the ability of danoprevir to displace ANR. A 75 nM solution of NS3a in FP-Buffer was incubated with 50 nM FAM-ANR in a black 96-well plate for 1 hour in the dark. 3-fold serial dilutions of danoprevir were prepared in FP-Buffer such that, when added to the NS3a/FAM-ANR solution, the highest concentration of danoprevir tested was 10 μM. Plates were incubated for 1 hour in the dark. Fluorescence polarization was measured at 22° C. on a Perkin Elmer EnVision™ fluorometer (excitation, 495 nm; emission 520 nm). Each measurement was carried out in triplicate. Anisotropy values were obtained and a nonlinear regression model was used to fit curves with GraphPad Prism.
# NS3a inactive (S139A) = molecular target: T2, NS3a inactive (S139A) (Hepatitis C virus genotype 1b, UniProt Q9WMX2, A1176V/E1056D/L1047A/L1120M/Q1112P/R1052K/S1165A/V1062L/V1196I); test: as above; assay type: binding; conditions: 75 nM NS3a, read-out: apparent IC50
# T2 construct: Avi-His6-NS3a; the text calls the FP protein non-biotinylated) (N); made in house; host or cells: E. coli BL21 (DE3)
# Protocol: as §1
# NS3a inactive = test: ANR-GST pulldown with immobilized biotinylated NS3a; assay type: binding, hepatitis C virus; conditions: 10 μM danoprevir, 5 μM ANR-GST
# Protocol: Pierce high-capacity streptavidin beads (Thermo-Fisher #P120359) were prepared by washing three times with Buffer PDA (TBS+0.05% tween+0.5 mg/mL BSA). For each condition and each replicate, beads were washed and incubated separately. The wash was performed by adding 200 μL Buffer PDA to 30 μL of a 50/50 bead slurry, inverting to mix, and spinning down (2500×g for 2 min). The supernatant was removed by pipetting, and the wash was repeated two more times to end with a 50/50 slurry of beads in wash buffer.
# Purified biotinylated NS3a was prepared at a 50× final concentration and 10 μL were added to a 490 μL 50/50 slurry of streptavidin beads and Buffer PD for final NS3a concentration of 125 nM. Beads were incubated and rotated at 4° C. After one hour, beads were harvested and washed three times as described previously, ending in a 50/50 bead/buffer slurry. ANR was added to all samples at a final concentration of 5 μM. For the danoprevir treated samples, danoprevir was added to a final concentration of 10 μM. Buffer PD was added to a final volume of 500 μL, and the beads were incubated and rotated at 4° C. After 1 hour, beads were pelleted and washed three times in Buffer FDB (TBS buffer+0.05% Tween) with 5 minute incubations between washes on a rotator at 4° C. To obtain final bound protein, beads were pelleted and supernatant was aspirated, resulting in a final volume of beads of 20 μL. […]
# [1] = test system: mCherry reporter gene in HEK293T cells; test: Chemically-disruptable Gal4(DBD)-NS3a(H1)/ANR-VPR transcriptional regulation; assay type: cell-based; conditions: 1 μM drug, 24 hours
# Protocol: Cells were subsequently transfected with 1 μg of the Gal4 reporter plasmid (UAS-mCherry™/CMV-Gal4-NS3a(H1)-P2A-ANR-Myc-BFP-VPR-NLS) in OptiMem™. […] Supernatant was subsequently removed and the cells were re-suspended in 400 μL DPBS and analyzed on a FACS LSRII (BD Biosciences).
# For Gal4/NS3a-CDP mediated transcriptional activation FACS experiments, 10,000 single cell events were collected for each of the samples run. […] The gathered FACS data were analyzed using FlowJo™ (v.10.1).
# CXCR4 = test: dCas9 transcription control, immunofluorescence FACS; assay type: cell-based, human; conditions: CXCR4 and CD95
# GFP reporter = test: Combined CXCR4 and GFP induction with scRNAs, NS3a-VPR; assay type: cell-based; conditions: read-out: EC50 (GFP expression)
# GFP, CD95 and CXCR4 = test: 3-gene experiment (GFP, CD95, CXCR4) by RT-qPCR; assay type: cell-based; conditions: 10 μM danoprevir, 1 μM grazoprevir, 1 μM asunaprevir
# Description: Cells were harvested on day 5 as described above for other samples to be analyzed to qPCR.
# HeLa cells = test: Widefield microscopy for signaling phenotype analysis; assay type: cell-based; conditions: EGFP-DNCR2-TIAM, BFP-GNCR1-LARG and NS3a-CAAX in HeLa cells
# Protocol: Widefield images were collected in an environmental chamber with humidity control, 37° C., and 5% CO2 on a Leica DMi8 automated fluorescence microscope. Cells were plated on glass-bottomed 96-well plates (Cellvis). Plates were treated with 10 μg/mL bovine fibronectin (Sigma Aldrich) for 1 hour and washed once with PBS.
# The cell line used was TRex™-HeLa (ThermoFisher Scientific), into which Lifeact-mCherry™ was stably integrated into the doxycycline-regulated Flp-In site by co-transfection of the pCDNA5-FRT/TO-Lifeact-mCherry™ vector with the Flp recombinase plasmid pOG44 (ThermoFisher Scientific) according to manufacturer's protocols. Lifeact-mCherry™ was induced by addition of 1 μg/mL doxycycline to culture media. For expression of signaling effector proteins, 1 day prior to imaging, 5×10^6 cells were transiently transfected with 10 μg DNA in a 100 μL electroporation tip using a Neon transfection system (ThermoFisher Scientific) according to manufacturer's recommendations for HeLa cells. 5×10^3 cells were plated in each well of the 96-well plate used for imaging. Cells recovered in complete DMEM with 10% FBS overnight. […] For Rac/Rho regulation, the construct PB-NS3a-CAAX-IRES-EGFP-DNCR2-TIAM-P2a-BFP-GNCR1-LARG was used, with images collected for the mCherry™ (Lifeact) and EGFP (DNCR2-TIAM) channels. […]
# NS3a in NIH3T3 cells = test: Confocal microscopy for colocalization analysis (fixed cells); assay type: cell-based; conditions: 5 μM drug
# NS3a = conditions: read-out: NS3a:drug Ki; published enzyme inhibition studies; cited from earlier work
smiles,measurement,setting,value
CC(C)(C)OC(=O)N[C@H]1CCCCC/C=C\[C@@H]2C[C@@]2(C(=O)NS(=O)(=O)C2CC2)NC(=O)[C@@H]2C[C@@H](OC(=O)N3Cc4cccc(F)c4C3)CN2C1=O [danoprevir],displacement of ANR from NS3a,NS3a active,potently and dose-dependently displace ANR from NS3a
same,IC50,"NS3a active; NS3a active, 75 nM NS3a, FAM-ANR, read-out: apparent IC50",< 75 nM
same,IC50,NS3a inactive (S139A),< 75 nM
same,pull down of ANR-GST by immobilized NS3a inactive,NS3a inactive,inhibits the ability of immobilized NS3a inactive to pull down ANR-GST
same,mCherry expression after drug treatment,[1],decreased mCherry™ expression to background levels
same,effect on gene expression in the absence of the guide RNA,CXCR4,no effect
same,EC50,GFP reporter,0.79 nM
same,transcriptional output state in 3-gene system,"GFP, CD95 and CXCR4",CD95 expression under control of DNCR2
same,cell shape change,HeLa cells,caused cell expansion
same,Colocalization of DNCR2-EGFP and GNCR1-BFP with NS3a-mCherry-CAAX,NS3a in NIH3T3 cells,DNCR2/NS3a colocalization
same,Localization of NS3a-mCherry with Tom20-BFP-ANR and DNCR2-EGFP-CAAX,NS3a in NIH3T3 cells,moved to the plasma membrane
same,Colocalization of NS3a-mCherry with ANR-BFP-CAAX or NLS-DNCR2-EGFP,NS3a in NIH3T3 cells; 15 min,recruited NS3a to the nucleus with NLS-DNCR2-EGFP
same,Colocalization of NS3a-mCherry with GNCR1-BFP-CAAX or Tom20-DNCR2-EGFP,NS3a in NIH3T3 cells; 15 min,led to colocalization with mitochondria-targeted Tom20-DNCR2-EGFP
same,Ki,NS3a,1 nM
